The target of one assay is human CB2 receptor (Homo sapiens (Human), UniProt P34972). Nature of the assay: cAMP assay, CHO cells expressing human CB2 receptors. The class given is cell-based. The protocol:
(§1) CHO cells expressing human CB1 or CB2 receptors are seeded 17-24 hours prior to the experiment 50.000 cells per well in a black 96 well plate with flat clear bottom (Corning Costar #3904) in DMEM (Invitrogen No. 31331), lx HT supplement, with 10% fetal calf serum and incubated at 5% CO2 and 37° C. in a humidified incubator. The growth medium was exchanged with Krebs Ringer Bicarbonate buffer with 1 mM IBMX and incubated at 30° C. for 30 min. Compounds were added to a final assay volume of 100 μl and incubated for 30 min at 30° C. Using the cAMP-Nano-TRF detection kit the assay (Roche Diagnostics) was stopped by the addition of 50 μl lysis reagent (Tris, NaCl, 1.5% Triton X100, 2.5% NP40, 10% NaN3) and 50 μl detection solutions (20 μM mAb Alexa700-cAMP 1:1, and 48 μM Ruthenium-2-AHA-cAMP) and shaken for 2 h at room temperature. The time-resolved energy transfer is measured by a TRF reader (Evotec Technologies GmbH), equipped with a ND:YAG laser as excitation source. The plate is measured twice with the excitation at 355 nm and at the emission with a delay of 100 ns and a gate of 100 ns, total exposure time 10 s at 730 (bandwidth 30 nm) or 645 nm (bandwidth 75 nm), respectively. The FRET signal is calculated as follows: FRET=T730-Alexa730-P(T645-B645) with P=Ru730-B730/Ru645-B645, where T730 is the test well measured at 730 nM, T645 is the test well measured at 645 nm, B730 and B645 are the buffer controls at 730 nm and 645 nm, respectively. cAMP content is determined from the function of a standard curve spanning from 10 μM to 0.13 nM cAMP.
(§2) EC50 values were determined using Activity Base analysis (ID Business Solution, Limited). The EC50 values for a wide range of cannabinoid agonists generated from this assay were in agreement with the values published in the scientific literature.

For another assay, the target named is human CB1 receptor (Homo sapiens (Human), UniProt P21554). The assay can be described thus: cAMP assay, CHO cells expressing human CB1 receptors. It counts as cell-based. The procedure:
as §1, §2
A general note: cAMP levels reflect the balance of adenylyl cyclase and phosphodiesterase activity.

The mark [1] stands for this setting: functional cAMP assay, CHO cells expressing human CB2, read-out: human CB2 EC50.
The mark [2] stands for this setting: functional cAMP assay, CHO cells expressing human CB1, read-out: human CB1 EC50.

Like-named read-outs stand apart in the source and are kept apart here. Where only a bound is given, the exact number is not on record here.

For orientation: EC50 means the concentration that produces a half-maximal response.

Chain of human CB2 receptor (P34972 whole entry): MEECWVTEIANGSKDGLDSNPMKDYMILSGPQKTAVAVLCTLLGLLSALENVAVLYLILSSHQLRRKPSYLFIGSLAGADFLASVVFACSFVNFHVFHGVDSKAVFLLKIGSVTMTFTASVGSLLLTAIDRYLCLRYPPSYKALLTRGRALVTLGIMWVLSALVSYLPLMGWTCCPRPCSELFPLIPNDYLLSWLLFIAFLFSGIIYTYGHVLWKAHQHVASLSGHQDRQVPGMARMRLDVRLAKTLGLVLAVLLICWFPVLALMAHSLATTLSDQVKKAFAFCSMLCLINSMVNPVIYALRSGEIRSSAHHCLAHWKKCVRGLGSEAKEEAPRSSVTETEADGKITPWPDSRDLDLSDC
Chain of human CB1 receptor (P21554 whole entry): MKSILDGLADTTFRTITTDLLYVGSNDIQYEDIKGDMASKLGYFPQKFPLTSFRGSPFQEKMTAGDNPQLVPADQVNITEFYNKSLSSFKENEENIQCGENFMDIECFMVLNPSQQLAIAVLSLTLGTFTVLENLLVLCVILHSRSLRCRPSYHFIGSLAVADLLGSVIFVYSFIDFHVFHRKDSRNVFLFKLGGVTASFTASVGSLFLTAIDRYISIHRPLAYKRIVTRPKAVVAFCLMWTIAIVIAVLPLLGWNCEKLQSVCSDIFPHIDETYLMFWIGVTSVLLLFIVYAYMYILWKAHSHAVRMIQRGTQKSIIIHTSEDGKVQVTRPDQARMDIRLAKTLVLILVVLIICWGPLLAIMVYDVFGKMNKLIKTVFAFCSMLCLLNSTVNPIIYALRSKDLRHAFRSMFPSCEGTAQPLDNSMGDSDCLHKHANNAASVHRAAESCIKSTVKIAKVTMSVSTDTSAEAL

In the case of `COc1ccc(Cn2ncc3c(N4CCC(F)(F)C4)nc(C(C)(C)C)nc32)cc1` [Example 1, 6-tert-Butyl-4-(3,3-difluoro-pyrrolidin-1-yl)-[(4-methoxyphenyl)methyl]-1H-pyrazolo[3,4-d]pyrimidine], the EC50 on human CB2 receptor (setting [1]) was 4.8 nM; on human CB1 receptor (setting [2]), more than 10000 nM.
On the same counts, the results for `CC(C)(C)c1nc(N2CCC(F)(F)C2)c2cnn(Cc3ccccc3)c2n1` [Example 2, 1-Benzyl-6-tert-butyl-4-(3,3-difluoro-pyrrolidin-1-yl)-1H-pyrazolo[3,4-d]pyrimidine] are 3.3 nM and more than 10000 nM.
For `CC(C)(C)c1nc(N2CC[C@H](O)C2)c2cnn(Cc3ccccc3Cl)c2n1` [Example 3, (S)-1-[6-tert-Butyl-1-[(2-chlorophenyl)methyl]-1H-pyrazolo[3,4-d]pyrimidin-4-yl]-pyrrolidin-3-ol] the same measures were 5.1 nM and more than 10000 nM.
For `CC(C)(C)c1nc(N2CCC(F)(F)C2)c2cnn(Cc3ccccc3Cl)c2n1` [Example 4, 6-tert-Butyl-1-[(2-chlorophenyl)methyl]-4-(3,3-difluoro-pyrrolidin-1-yl)-1H-pyrazolo[3,4-d]pyrimidine] the same measures were 4.2 nM and more than 10000 nM.
Regarding `CCOc1nc(C(C)(C)C)nc2c1cnn2Cc1ccccc1Cl` [Example 5, 6-tert-Butyl-1-[(2-chlorophenyl)methyl]-4-ethoxy-1H-pyrazolo[3,4-d]pyrimidine], the results for the EC50 on human CB2 receptor (setting [1]) and on human CB1 receptor (setting [2]) were 25.5 nM and more than 10000 nM, respectively.
On the same counts, the results for `CC(C)(C)c1nc(N2CCC(F)(F)C2)c2cnn(Cc3ccc(F)cc3Cl)c2n1` [Example 6, 6-tert-Butyl-1-[(2-chloro-4-fluorophenyl)methyl]-4-(3,3-difluoro-pyrrolidin-1-yl)-1H-pyrazolo[3,4-d]pyrimidine] are 5.9 nM and more than 10000 nM.
For `CC(C)(C)c1nc(N2CCC(F)(F)C2)c2cnn(Cc3ccccc3C(F)(F)F)c2n1` [Example 7, 6-tert-Butyl-4-(3,3-difluoro-pyrrolidin-1-yl)-1-[(2-trifluoromethylphenyl)methyl]-1H-pyrazolo[3,4-d]pyrimidine] the same measures were 1.1 nM and more than 10000 nM.
Consider `CC(C)(C)c1nc(N2CCC(F)(F)C2)c2cnn(CCc3ccccc3)c2n1` [Example 8, 6-tert-Butyl-4-(3,3-difluoro-pyrrolidin-1-yl)-1-phenethyl-1H-pyrazolo[3,4-d]pyrimidine], for which the figures for the EC50 at human CB2 receptor (setting [1]) and on human CB1 receptor (setting [2]) were 5.4 nM and more than 10000 nM, respectively.
Take `Cc1nonc1Cn1ncc2c(N3CCC(F)(F)C3)nc(C(C)(C)C)nc21` [Example 9, 6-tert-Butyl-4-(3,3-difluoro-pyrrolidin-1-yl)-1-(4-methyl-furazan-3-ylmethyl)-1H-pyrazolo[3,4-d]pyrimidine]: the EC50 was 0.5 nM at human CB2 receptor (setting [1]) and more than 10000 nM on human CB1 receptor (setting [2]).
For `CC(C)(C)c1nc(N2CCC(F)(F)C2)c2cnn(Cc3ccccc3S(C)(=O)=O)c2n1` [Example 10, 6-tert-Butyl-4-(3,3-difluoro-pyrrolidin-1-yl)-1-(2-methanesulfonyl-benzyl)-1H-pyrazolo[3,4-d]pyrimidine] the same measures were 0.7 nM and 337 nM.
For `CC(C)(C)c1nc(N2CCC(F)(F)C2)c2cnn(Cc3cccnc3Cl)c2n1` [Example 12, 6-tert-Butyl-1-(2-chloro-pyridin-3-ylmethyl)-4-(3,3-difluoro-pyrrolidin-1-yl)-1H-pyrazolo[3,4-d]pyrimidine] the same measures were 1.6 nM and 1570 nM.
On the same counts, the results for `CC(C)(C)c1nc(N2CCC(F)(F)C2)c2cnn(C3CS(=O)(=O)C3)c2n1` [Example 13, 6-tert-Butyl-4-(3,3-difluoro-pyrrolidin-1-yl)-1-(1,1-dioxo-1λ^6-thietan-3-yl)-1H-pyrazolo[3,4-d]pyrimidine] are 19.6 nM and more than 10000 nM.
Consider `CC(C)(C)c1nc(N2CCC(F)(F)C2)c2cnn(C3CCOC3)c2n1` (centres unmarked) [Example 14, 6-tert-Butyl-4-(3,3-difluoro-pyrrolidin-1-yl)-1-(tetrahydro-furan-3-yl)-1H-pyrazolo[3,4-d]pyrimidine], for which the EC50 on human CB2 receptor (setting [1]) is 1.3 nM; at human CB1 receptor (setting [2]) it was more than 10000 nM.
For `Cn1nnnc1Cn1ncc2c(N3CCC(F)(F)C3)nc(C(C)(C)C)nc21` [Example 15, 6-tert-Butyl-4-(3,3-difluoro-pyrrolidin-1-yl)-1-(1-methyl-1H-tetrazol-5-ylmethyl)-1H-pyrazolo[3,4-d]pyrimidine] the same measures were 0.9 nM and more than 10000 nM.
Consider `CC(C)(C)c1nc(N2CCC(F)(F)C2)c2cnn(Cc3nnnn3C3CC3)c2n1` [Example 16, 6-tert-Butyl-1-(1-cyclopropyl-1H-tetrazol-5-ylmethyl)-4-(3,3-difluoro-pyrrolidin-1-yl)-1H-pyrazolo[3,4-d]pyrimidine], for which the half-maximal effective concentration (EC50) at human CB2 receptor (setting [1]) was 0.6 nM; on human CB1 receptor (setting [2]), more than 10000 nM.
For `Cc1nnc(Cn2ncc3c(N4CCC(F)(F)C4)nc(C(C)(C)C)nc32)n1C` [Example 17, 6-tert-Butyl-4-(3,3-difluoro-pyrrolidin-1-yl)-1-(4,5-dimethyl-4H-[1,2,4]triazol-3-ylmethyl)-1H-pyrazolo[3,4-d]pyrimidine], the 50% effective concentration (EC50) at human CB2 receptor (setting [1]) was 3 nM; at human CB1 receptor (setting [2]) it was more than 10000 nM.
As to `Cc1nnc(Cn2ncc3c(N4CC=C(F)C4)nc(C(C)(C)C)nc32)n1C` [Example 18, 6-tert-Butyl-1-(4,5-dimethyl-4H-[1,2,4]triazol-3-ylmethyl)-4-(3-fluoro-2,5-dihydro-pyrrol-1-yl)-1H-pyrazolo[3,4-d]pyrimidine], the values for the EC50 at human CB2 receptor (setting [1]) and at human CB1 receptor (setting [2]) were 26.2 nM and more than 10000 nM, respectively.
With `Cn1nncc1Cn1ncc2c(N3CCC(F)(F)C3)nc(C(C)(C)C)nc21` [Example 19, 6-tert-Butyl-4-(3,3-difluoro-pyrrolidin-1-yl)-1-(3-methyl-3H-[1,2,3]triazol-4-ylmethyl)-1H-pyrazolo[3,4-d]pyrimidine], the EC50 on human CB2 receptor was 1.4 nM; at human CB1 receptor, more than 10000 nM.
For `Cn1nncc1Cn1ncc2c(N3CC=C(F)C3)nc(C(C)(C)C)nc21` [Example 20, 6-tert-Butyl-4-(3-fluoro-2,5-dihydro-pyrrol-1-yl)-1-(3-methyl-3H-[1,2,3]triazol-4-ylmethyl)-1H-pyrazolo[3,4-d]pyrimidine], the EC50 at human CB2 receptor (setting [1]) was 1.6 nM; on human CB1 receptor (setting [2]), more than 10000 nM.
Take `CC(C)(C)c1nc(N2CCC(F)(F)C2)c2cnn(CC(=O)c3ccncc3)c2n1` [Example 21, 2-[6-tert-Butyl-4-(3,3-difluoro-pyrrolidin-1-yl)-pyrazolo[3,4-d]pyrimidin-1-yl]-1-pyridin-4-yl-ethanone]: the values for the EC50 at human CB2 receptor (setting [1]) and at human CB1 receptor (setting [2]) were 3.4 nM and more than 10000 nM, respectively.
For `CC(C)(C)c1nc(N2CCC(F)(F)C2)c2cnn(CC(=O)c3ccccn3)c2n1` [Example 22, 2-[6-tert-Butyl-4-(3,3-difluoro-pyrrolidin-1-yl)-pyrazolo[3,4-d]pyrimidin-1-yl]-1-pyridin-2-yl-ethanone] the same measures were 8.4 nM and more than 10000 nM.
For `COc1ccc(Cn2ncc3c(N4CC[C@H](O)C4)nc(C(C)(C)C)nc32)cc1` [Example 23, (S)-1-[6-tert-Butyl-1-[(4-methoxyphenyl)methyl]-1H-pyrazolo[3,4-d]pyrimidin-4-yl]-pyrrolidin-3-ol] the same measures were 5.5 nM and more than 10000 nM.

For the origin of these results see patent publication US9512132B2, “Pyrazole compounds as CB2 agonists” (Hoffmann-La Roche Inc., priority 2013, dated 2016).
